These results are taken from patent publication US20190307820A1, “COMPOSITIONS AND METHODS OF USING STAT1/3 INHIBITORS WITH ONCOLYTIC HERPES VIRUS” (priority 2016, published 2019).

For experiment [1], the system named is oHSV-1 (HrR3) in 9L cells. Put plainly: oHSV-1 (HrR3) replication in 9L cells, titrated in vero cells. The class given is cell-based, HSV-1. To be noted: HrR3 MOI-0.1, 48 hours. As for the experimental part:
(§1) FIGS. 2A-2B contain charts that show the effect of nifuroxazide on replication of oHSV-1. (FIG. 2A) Indicated cells were infected with HrR3 viruses at MOI-0.1. Viruses were harvested at 48 hours post-infected and titrated in vero cells. Data are presented as mean SD, *P<0.05 vs corresponding vehicle treatment. (FIG. 2B) U87 or glio cells were treated with HrR3 at a MOI of 1 and indicated concentration of nifuroxazide for 48 hours. Total DNA was extracted and subjected to qPCR to detect HSV-1 using ICP27 primer. nifuroxazide mediated oHSV-1% increase was represented in the figure.
(§2) In this example, the effect of nifuroxazide on oHSV-1 anti-tumor efficacy was evaluated. oHSV-1 infected treated glioma cells were incubated with low concentration of nifuroxazide. Replication increased 27- and 40-fold with 0.5 μM nifuroxazide and 10 μM nifuroxazide treated U87 cells respectively. Similarly, virus replication increased 0.8- and 4.7-fold virus in 9L cells treated with 0.5 μM nifuroxazide and 10 μM nifuroxazide respectively (FIG. 2A).

The next experiment has as its target T1, STAT1 (Homo sapiens, UniProt P42224).
T1 construct: Extracted protein was then subjected to western blot assay; endogenous in cells; host or cells: U87 cells, with or without HrR3 infection
T1 sequence (P42224 1-750): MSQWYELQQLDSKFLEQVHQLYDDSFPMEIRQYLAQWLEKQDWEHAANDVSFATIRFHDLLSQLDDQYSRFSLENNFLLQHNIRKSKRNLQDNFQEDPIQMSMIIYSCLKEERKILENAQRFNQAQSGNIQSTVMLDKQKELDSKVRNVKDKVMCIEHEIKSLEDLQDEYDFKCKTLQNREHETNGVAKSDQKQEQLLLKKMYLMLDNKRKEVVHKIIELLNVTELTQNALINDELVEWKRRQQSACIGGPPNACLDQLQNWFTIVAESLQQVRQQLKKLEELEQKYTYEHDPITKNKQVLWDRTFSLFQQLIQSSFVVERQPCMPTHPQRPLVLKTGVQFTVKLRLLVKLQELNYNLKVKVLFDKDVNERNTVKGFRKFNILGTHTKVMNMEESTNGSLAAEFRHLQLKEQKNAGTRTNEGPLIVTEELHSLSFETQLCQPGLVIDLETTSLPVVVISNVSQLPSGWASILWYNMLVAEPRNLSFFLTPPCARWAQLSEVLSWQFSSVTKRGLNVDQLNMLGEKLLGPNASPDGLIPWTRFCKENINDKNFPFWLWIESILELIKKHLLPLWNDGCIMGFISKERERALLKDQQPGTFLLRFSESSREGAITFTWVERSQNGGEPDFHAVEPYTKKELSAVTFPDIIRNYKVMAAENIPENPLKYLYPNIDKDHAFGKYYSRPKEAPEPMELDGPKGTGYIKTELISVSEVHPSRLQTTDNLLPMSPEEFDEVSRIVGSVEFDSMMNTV
Put plainly: Western blot of STAT1 phosphorylation in U87 cells. The format is cell-based. Here is the method: (FIG. 5A) U87 cells were treated with HrR3 at a MOI of 5 and indicated concentration of nifuroxazide for 6 hours. Extracted protein was then subjected to western blot assay. (FIG. 5B) U87 cells were treated with indicated concentration of HrR3 or nifuroxazide or stattic or in combination for 72 hours. Cytotoxicity was measured by MTT assay. (FIG. 5C) Relative mRNA level (2^−ΔΔCT) is shown. Data are presented as mean SD, *P<0.05 vs corresponding vehicle treatment.
FIG. 19A and FIG. 19B, U87 cells (A) or CT26 cells (B) were treated with the indicated concentrations of HrR3 or NF or a combination. Total protein was extracted after 24 hours and subjected to western blot analysis. Band intensity was measured using Image J software and normalized to β-actin. Samples were run in triplicate and data are as means±S.E. Statistically significant differences are indicated by P<0.05 or P<0.01. FIG. 19C, Mice subcutaneously bearing U87 tumors were intratumorally injected with a single dose of HrR3 virus (1×10^6 PFU) and/or peritoneally injected doses of NF as indicated. Tumors were harvested on day 10 post treatment and total protein was extracted from a mouse of each treatment group and subjected to western blot analysis in triplicate. Results are reported as means±S.E.
Expression of key regulator of the Type1 interferon signaling, STAT1 and STAT3, was determined in nifuroxazide treated oHSV-1 infected U87 cells.
NF is a known inhibitor of STAT1 and STAT3. To evaluate the underlying molecular mechanism of the anti-tumour effect of the NF and oHSV-1 combination, the STAT1 and STAT3 status in U87 cells (FIG. 19A) and CT26 cells (FIG. 19B) cells was determined after an overnight treatment with NF and oncolytic viruses.

Experiment [2] has as its system oHSV-1 (HrR3) in U87 cells. The experiment can be described thus: oHSV-1 (HrR3) replication in U87 cells, titrated in vero cells. The format is cell-based, HSV-1. To be noted: HrR3 MOI-0.1, 48 hours. As for the experimental part:
as §1, §2

`O=C(N/N=C/c1ccc([N+](=O)[O-])o1)c1ccc(O)cc1` [nifuroxazide, Benzoic acid, 4-hydroxy-, [(5-nitro-2-furanyl)metylene]hydrazide]: the virus replication increased in experiment [1] (0.5 μM nifuroxazide) was 0.8 fold; in experiment [1] (10 μM nifuroxazide), 4.7 fold. The “HrR3 induced upregulation of STAT1 phosphorylation” value at STAT1 (24 hours) is reported as “effectively suppressed”. Besides, the STAT1 phosphorylation result on STAT1 (HrR3 MOI of 5, 6 hours) is “dose dependent STAT1 and STAT3 phosphorylation reduction”. For the same molecule, the “phosphorylation of STAT1” value at STAT1 (NF alone, 24 hours) is listed as “dose dependent inhibition”. In addition, the Replication increased in experiment [2] (0.5 μM nifuroxazide) is 27 fold; in experiment [2] (10 μM nifuroxazide), 40 fold.
